# Data from patent US20250115595A1, “INHIBITORS OF HYPOXIA-INDUCIBLE FACTORS” (The Johns Hopkins University, priority 2021, published 2025).
# Test system: HIF transcriptional activity
# Test: Luciferase reporter assay (FLuc/RLuc) in hypoxic Hep3B-c1 cells
# Format: cell-based
# Details: Homo sapiens, FLuc/RLuc ratio, 1% O2, 24 hours
# Protocol: The NCI CellMiner database contains expression data on 25,698 mRNAs in 60 human cancer cell lines that were exposed to 21,770 chemical compounds (Reinhold W C, et. al., Cancer Res. 2012; 72(14):3499-3511). The CellMiner database was interrogated for compounds that induced changes in gene expression highly correlated with those induced by acriflavine, but would be structurally unrelated to acriflavine. Compounds that satisfied these criteria were analyzed in Hep3B-c1 cells (Zhang H. et. al., Proc Natl Acad Sci USA. 2008; 105(50):19579-19586), which are stably transfected with: HIF dependent reporter plasmid p2.1, in which firefly luciferase (FLuc) coding sequences are located downstream from a hypoxia response element (HRE) and a basal SV40 promoter; and control reporter pSVR, in which Renilla luciferase (RLuc) coding sequences are downstream of the basal SV40 promoter only (FIG. 1A).
# Hep3B-c1 cells (Zhang 2008), which are stably co-transfected with reporter plasmids p2.1, a hypoxia-inducible firefly luciferase reporter gene containing a hypoxia response element (HRE), and pSVR, a constitutively expressed Renilla luciferase reporter gene, were seeded on 24-well plates. Cells were treated with compounds the following day and exposed to 20% or 1% O2 for 24 hours. For transient transfection, cells were seeded, transfected with the listed plasmids and compounds, and exposed to 20% or 1% O2 for 24 hours. FLuc/RLuc ratios were determined using the Dual Luciferase Reporter Assay System (Promega) and the VICTOR Nivo plate reader (PerkinElmer).
row,IC50 [nM],SMILES
1,2900,Brc1ccc2c(-c3nc(-c4c[nH]c5ccc(Br)cc45)cs3)c[nH]c2c1 [Compound 11-88]
2,2920,Brc1ccc2[nH]cc(-c3csc(-c4c[nH]c5ccccc45)n3)c2c1 [Compound 11-147B]
3,3090,Brc1ccc2c(-c3csc(-c4c[nH]c5ccccc45)n3)c[nH]c2c1 [Compound 12-58]
4,2310,Brc1ccc2c(-c3nc(-c4cnc5ncccn45)cs3)c[nH]c2c1 [Compound 12-70C]
5,2400,O=c1[nH]c2ccc(-c3csc(-c4c[nH]c5ccccc45)n3)cc2o1 [Compound 12-93A]
6,2480,c1ccc2c(-c3nc(-c4cnc5ncccn45)cs3)c[nH]c2c1 [Compound 12-93F]
7,2600,Fc1cccc2c(-c3nc(-c4c[nH]c5cc(Br)ccc45)cs3)c[nH]c12 [Compound 12-143]
8,2520,Fc1ccc2c(-c3nc(-c4c[nH]c5cc(Br)ccc45)cs3)c[nH]c2c1 [Compound 12-147A]
9,3080,Clc1ccc2c(-c3nc(-c4c[nH]c5cc(Br)ccc45)cs3)c[nH]c2c1 [Compound 12-147B]
10,2070,Brc1cccc2c(-c3csc(-c4c[nH]c5c(Br)cccc45)n3)c[nH]c12 [Compound 13-01]
11,2690,Brc1ccc2c(-c3nc(-c4c[nH]c5c(Br)cccc45)cs3)c[nH]c2c1 [Compound 13-03]
12,2300,Brc1ccc2c(-c3csc(-c4c[nH]c5cc(Br)ccc45)n3)c[nH]c2c1 [Compound 32-134C]
13,2860,c1ccc2c(-c3csc(-c4c[nH]c5ccccc45)n3)c[nH]c2c1 [Compound 33-057A]
14,2200,"c1ccc2c(-c3nsc(-c4c[nH]c5ccccc45)n3)c[nH]c2c1 [Compound 33-063, 3,5-di(1H-indol-3-yl)-1,2,4-thiadiazole]"
15,2510,c1ccc2c(-c3nnc(-c4c[nH]c5ccccc45)o3)c[nH]c2c1 [Compound 33-087]
16,2700,Brc1ccc2[nH]cc(-c3nnc(-c4c[nH]c5ccccc45)o3)c2c1 [Compound 33-093B]
17,2870,Brc1ccc2[nH]cc(-c3nnc(-c4c[nH]c5ccc(Br)cc45)o3)c2c1 [Compound 33-103B]
18,2800,Brc1ccc2c(-c3nnc(-c4c[nH]c5cc(Br)ccc45)o3)c[nH]c2c1 [Compound 33-103C]
19,3240,O=c1[nH]cc(-c2c[nH]c3ccccc23)nc1-c1c[nH]c2ccccc12 [Compound 33-123]
20,1830,c1cc(-c2c[nH]c3ccccc23)nc(-c2c[nH]c3ccccc23)c1 [Compound 34-090]
21,1270,c1ccc2c(-c3cncc(-c4c[nH]c5ccccc45)n3)c[nH]c2c1 [Compound 34-110]
22,2040,Clc1ncc(-c2c[nH]c3ccccc23)nc1-c1c[nH]c2ccccc12 [Compound 34-146]
23,2370,c1ccc2c(-c3ccnc(-c4c[nH]c5ccccc45)n3)c[nH]c2c1 [Compound 35-020]
24,2070,c1ccc2c(-c3cc(-c4c[nH]c5ccccc45)[nH]n3)c[nH]c2c1 [Compound 35-092]
25,1940,c1ccc2c(-c3cc(-c4c[nH]c5ccccc45)on3)c[nH]c2c1 [Compound 35-140]

# Test system: HIF target genes
# Test: RT-qPCR of HIF target gene expression in Hep3B cells
# Format: cell-based, human
# Details: not given
# Protocol: Based on hit compound 11-88, a number of analogs were prepared in which either halogen substitutions to the indole groups were altered or the central thiazole was replaced by imidazole, isoxazole, oxadiazole, oxazole, pyrazinone, pyridazine, pyrazine, pyrazole, pyridine, thiadiazole, triazine, or triazole. […] The bis-bromoindole thiazole 32-134D and the bis-indole thiadiazole 33-063 (FIGS. 1B and 1C) were further characterized with respect to endogenous HIF target gene expression in Hep3B cells. […] For comparison, we tested the effect of PT2385, which inhibited EPO, NDRG1, ANGPTL4, and VEGFA expression but had no effect on CA9, which is consistent with its HIF-2-selective mechanism of action (Wallace E M et al., Cancer Res. 2016; 76(18):5491-5500). None of the compounds had any effect on RPL13A expression, which is neither hypoxia-induced nor HIF-regulated (FIG. 3).
# (§1) Human Hep3B and mouse Hepa1-6 cells were purchased from ATCC and grown in high-glucose (4.5 mg/ml) Dulbecco's modified Eagle's medium supplemented with 10% (vol/vol) fetal bovine serum and […] at 37° C. in a 5% CO2/95% air incubator (20% O2). Human cell line identity was authenticated by analysis of short tandem repeats, and all cell lines were maintained mycoplasma free, using PCR-based assays conducted at the Johns Hopkins University Genetic Resources Core Facility. Cells were subjected to hypoxia in a controlled atmosphere chamber (PLAS Labs) with ambient gas mixture containing 1% O2 and 5% CO2.
# (§2) RNA was extracted using TRIzol Reagent (ThermoFisher). Quantitative Real-time PCR was conducted using SYBR Green PCR Master Mix (BioRad) and reactions were run using the BioRad thermal cycler (BioRad). The mRNA expression of target genes was normalized to the expression of 18S rRNA and the fold change (FC) was calculated based on the threshold cycle (Ct) as
# FC=2^−Δ(ΔCt) where ΔCt=Cttarget gene−Ct18S rRNA and Δ(ΔCt)=ΔCttreatment−ΔCtcontrol.
SMILES,"hypoxia-induced expression of HIF target genes CA9, ANGPTL4, VEGFA, NDRG1 and EPO",CA9 expression,"EPO, NDRG1, ANGPTL4 and VEGFA expression"
"c1ccc2c(-c3nsc(-c4c[nH]c5ccccc45)n3)c[nH]c2c1 [Compound 33-063, 3,5-di(1H-indol-3-yl)-1,2,4-thiadiazole]",inhibited,–,–
"CS(=O)(=O)c1ccc(Oc2cc(F)cc(C#N)c2)c2c1[C@H](O)C(F)(F)C2 [PT2385, reference compound]",–,no effect,inhibited

# Test system: Hepa1-6 mouse HCC cells
# Test: RT-qPCR of hypoxia-induced mRNAs in Hepa1-6 cells
# Format: cell-based
# Details: hypoxic Hepa1-6 cells
# Protocol: Effects of 32-134D on Hepa1-6 mouse HCC cells and tumors. […] Thus, 32-134D inhibits the ability of hypoxic HCC cells to increase O2 delivery by stimulating angiogenesis (Angpt14, Pgf, Vegfa) or […] anaerobic metabolism by increasing glycolytic flux (Glut1, Pgk1, Ldha).
# as §1
# as §2, with “(Ct) as […]” for “(Ct) as”
SMILES,"hypoxia-induced expression of mRNA encoding Angpt14, Pgf, Vegfa and Pgk1",expression of Pgk1 mRNA
"c1ccc2c(-c3nsc(-c4c[nH]c5ccccc45)n3)c[nH]c2c1 [Compound 33-063, 3,5-di(1H-indol-3-yl)-1,2,4-thiadiazole]",significant dose-dependent inhibition,–
"CS(=O)(=O)c1ccc(Oc2cc(F)cc(C#N)c2)c2c1[C@H](O)C(F)(F)C2 [PT2385, reference compound]",–,no effect

# Same assay, conditions: hypoxic Hepa1-6 cells, compared with 33-063 and 32-134D
row,SMILES,"Angpt14, Pgf, and Vegfa mRNA expression"
1,"CS(=O)(=O)c1ccc(Oc2cc(F)cc(C#N)c2)c2c1[C@H](O)C(F)(F)C2 [PT2385, reference compound]",less potent inhibitor

# Test system: advanced HCC
# Test: not given
# Details: advanced HCC patients; cited from earlier work
row,SMILES,survival benefit
1,CNC(=O)c1cc(Oc2ccc(NC(=O)Nc3ccc(Cl)c(C(F)(F)F)c3)cc2)ccn1 [sorafenib],2-3 months
